Entries after “also recorded” stand apart in the source; their conditions may differ.
Tests used:
Format in all cases: cell-based, Human
ARPE-19 cells [1] = assay: MTT cytotoxicity assay of LE DDS; conditions: 1, 10, 100 μM, 24 hours
Protocol: (§1) Human retinal pigment epithelium, ARPE-19, cells (ATCC # CRL-2302) were grown in 1:1 Dulbecco's Modified Eagle's Medium and Ham's F12 Medium (Mediatech, Inc., Manassas, Va.) with 10% fetal bovine serum and 100 U/mL penicillin/streptomycin (Sigma Aldrich, St. Louis, Mo.). The cultures were maintained in a humid environment at 5% CO2 and 37° C.
Cytotoxicity was assessed in ARPE-19 cells by the 3-(4,5-dimethylthiazol-2-yl)-2,5-diphenyltetrazolium bromide salt (MTT) assay. Briefly, cells were seeded in 24-well plates at a density of 5×10^4 cells/mL for 24 hours to achieve confluence before treatment. Cells were exposed to free LE solution, LE NPs, and LE NPs-TR gel at varying concentrations (0, 1, 10, 100 μM) for 24 hours after which the MTT assay was performed. Cell culture media were aspirated and 300 μL of MTT reagent solution (1 mg/mL) was added to each well. Cells were incubated at 37° C. and 5% CO2 for 4 hours, after which the MTT reagent solution was aspirated and 500 μL of DMSO was added to each well. Plates were allowed to shake gently for 10 minutes before being read by Synergy H4 plate reader (Biotek Industries, Inc., Winooski, Vt.) at absorbance of 570 nm.

[2] = test system: VEGF secretion in ARPE-19 cells; assay: VEGF secretion ELISA, LE formulations
Protocol: as §1
ARPE-19 cells were seeded onto 24-well plates at 5×10^4 cells/mL and allowed to grow until confluence. On the day of study, cell culture media were replaced with 1% FBS experimental media and allowed to remain in quiescence for 12 hours. The cellular monolayers were incubated with varying treatment concentrations of free LE solution (1, 10 μM), LE NPs (10 μM), and LE NPs-TR gel (10 μM). Culture media were collected at 12 and 72 hours. Secreted VEGF in collected culture media was quantified by the ELISA method (Human VEGFA ELISA kit, Thermo Scientific, Waltham, Mass.). The cell protein content was assayed using the BCA protein assay kit after lysing the cells and VEGF secretion was normalized to total protein. Samples were read by using the Synergy H4 plate reader (Biotek Industries, Inc., Winooski, Vt.) with absorbance at 450 nm minus absorbance at 550 nm.

[3] = test system: VEGF secretion in ARPE-19 cells; assay: VEGF secretion ELISA, TA formulations; conditions: 10 μM, 72 h
Protocol: Human retinal pigment epithelium, ARPE-19, cells (ATCC # CRL-2302) were grown in 1:1 Dulbecco's Modified Eagle's Medium and Ham's F12 Medium (Mediated, Inc., Manassas, Va.) with 10% fetal bovine serum and 100 Um′ penicillin/streptomycin (Sigma Aldrich, St. Louis, Mo.). The cultures were maintained in a humid environment at 5% CO2 and 37° C. ARPE-19 cells were seeded onto 24-well plates at 5×10^4 cells/ml and allowed to grow until confluence. On the day of study, cell culture media were replaced with 1% FBS experimental media and allowed to remain in quiescence for 12 h. The cellular monolayers were incubated with varying treatment concentrations of free TA solution (1, 10 and 100 μM), TA NPs (10 and 100 μM) and TA NP-TR gel (10 and 100 μM). Culture media were collected at 12 and 72 h. Secreted VEGF in collected culture media was quantified by the ELISA method (Human VEGFA ELISA kit, Thermo Scientific, Waltham, Mass.). The cell protein content was assayed using the BCA protein assay kit after lysing the cells, and VEGF secretion was normalized to total protein. Samples were read using the Synergy H4 plate reader (Biotek Industries, Inc., Winooski, Vt.) with absorbance at 450 nm minus absorbance at 550 nm.

ARPE-19 cells [4] = assay: MTT cytotoxicity assay of TA DDS; conditions: 10 μM, 24 h
Protocol: as §1, with “(Mediated,” for “(Mediatech,”, “Um′” for “U/mL”
The cytotoxicity of the DDS was assessed in ARPE-19 cells by the 3-(4,5-dimethylthiazol-2-yl)-2,5-diphenyltetrazolium bromide salt (MTT) assay. Briefly, cells were seeded in 24-well plates at a density of 5×10^4 cells/ml for 24 h to achieve confluency before treatment. Cells were exposed to free TA, TA NPs, and TA NP-TR gel at varying concentrations (0, 1, 10, 100 μM) for 24 h after which the MTT assay was performed. Cell culture media were aspirated, and […] of MTT reagent solution (1 mg/ml) was added to each well. Cells were incubated at 37° C. and 5% CO2 for 4 h, after which the MTT reagent solution was aspirated and 1 mL of DMSO was added to each well. Plates were allowed to shake gently for 10 min before being read by Synergy H4 plate reader (Biotek Industries, Inc., Winooski, Vt.) at absorbance of 570 nm.

Structure (SMILES) | MTT cytotoxicity vs untreated control cells (ARPE-19 cells [1]) | MTT cytotoxicity vs untreated control cells (ARPE-19 cells [1]; listed as free LE solution) | suppression of VEGF expression vs media control ([2]; 1 μM, 12 hours) | suppression of VEGF secretion vs control ([2]; 10 μM, 12 hours) | reduction of VEGF expression compared to control ([2]; within 12 hours, p<0.05, concentration not stated) | suppression of VEGF expression [3] | MTT cytotoxicity vs untreated control cells (ARPE-19 cells [4])
CCOC(=O)O[C@]1(C(=O)OCCl)CC[C@H]2[C@@H]3CCC4=CC(=O)C=C[C@]4(C)[C@H]3[C@@H](O)C[C@@]21C [free LE, Loteprednol etabonate] | no impact on cell viability | no cytotoxicity | showed reduction in VEGF expression | showed reduction in VEGF expression | significantly reduced VEGF expression | – | –
CC1(C)O[C@@H]2C[C@H]3[C@@H]4CCC5=CC(=O)C=C[C@]5(C)[C@@]4(F)[C@@H](O)C[C@]3(C)[C@]2(C(=O)CO)O1 [free TA, Triamcinolone acetonide] | – | – | – | – | – | no significant effect | induced significant cell death; also recorded: cytotoxic
